Measurements from the NIST ThermoML archive (doi:10.1016/j.jct.2013.05.014).
± gives the expanded uncertainty stated by the source.

Tests used:
[1] = xn = mol fraction of the nth substance listed; settings: 298.15 K, 101 kPa, Liquid; for viscosity: Capillary tube (Ostwald / Ubbelohde) method; for mass density: Pycnometric method
[2] = 298.15 K, 101 kPa, Liquid; for viscosity: Capillary tube (Ostwald / Ubbelohde) method; for mass density: Pycnometric method

CCCCCCC(C)O (centres undefined) [2-octanol] + CCCCCCCCCC
[1]
Settings | mass density [kg/m3] | viscosity [mPa·s]
x2 = 0 | 817.05 ± 1 | 6.429 ± 0.13
x2 = 0.0554 | 810.77 ± 1 | 5.222 ± 0.11
x2 = 0.0998 | 805.83 ± 1 | 4.638 ± 0.096
x2 = 0.1554 | 799.74 ± 1 | 3.972 ± 0.082
x2 = 0.1999 | 794.99 ± 1 | 3.491 ± 0.072
x2 = 0.2554 | 789.2 ± 1 | 2.951 ± 0.061
x2 = 0.2999 | 784.67 ± 1 | 2.564 ± 0.053
x2 = 0.3555 | 779.16 ± 1 | 2.136 ± 0.044
x2 = 0.3998 | 774.9 ± 1 | 1.836 ± 0.038
x2 = 0.4554 | 769.69 ± 1 | 1.509 ± 0.033
x2 = 0.4999 | 765.64 ± 1 | 1.284 ± 0.033
x2 = 0.5555 | 760.74 ± 1 | 1.046 ± 0.032
x2 = 0.5998 | 756.94 ± 1 | 0.889 ± 0.032
x2 = 0.6555 | 752.3 ± 1 | 0.73 ± 0.032
x2 = 0.7 | 748.7 ± 1 | 0.63 ± 0.032
x2 = 0.7554 | 744.32 ± 1 | 0.538 ± 0.032
x2 = 0.7998 | 740.91 ± 1 | 0.487 ± 0.032
x2 = 0.8554 | 736.74 ± 1 | 0.45 ± 0.032
x2 = 0.8999 | 733.47 ± 1 | 0.438 ± 0.032
x2 = 0.9554 | 729.48 ± 1 | 0.445 ± 0.032

CCCCCCCCCC [decane] + CCCCCCC(C)O
[1], x1 = 1
Settings | mass density [kg/m3] | viscosity [mPa·s]
– | 726.35 ± 1 | 0.845 ± 0.032

CCCCCCCCCC [decane]
[2]
Settings | mass density [kg/m3] | viscosity [mPa·s]
– | 726.35 ± 1 | 0.845 ± 0.032

CCCCCCC(C)O (centres undefined) [2-octanol]
[2]
Settings | mass density [kg/m3] | viscosity [mPa·s]
– | 817.05 ± 1 | 6.429 ± 0.13

CCCCC(C)O (centres undefined) [2-hexanol]
[2]
Settings | mass density [kg/m3] | viscosity [mPa·s]
– | 810.84 ± 1 | 4.105 ± 0.085

CCCCCC(C)O (centres undefined) [2-heptanol]
[2]
Settings | mass density [kg/m3] | viscosity [mPa·s]
– | 813.74 ± 1 | 5.08 ± 0.11

CCCCCCCCCC [decane] + CCCCC(C)O
[1], x1 = 1
Settings | mass density [kg/m3] | viscosity [mPa·s]
– | 726.35 ± 1 | 0.845 ± 0.032

CCCCC(C)O (centres undefined) [2-hexanol] + CCCCCCCCCC
[1]
Settings | mass density [kg/m3] | viscosity [mPa·s]
x2 = 0 | 810.84 ± 1 | 4.105 ± 0.085
x2 = 0.0555 | 802.94 ± 1 | 3.569 ± 0.074
x2 = 0.0999 | 797.23 ± 1 | 3.17 ± 0.066
x2 = 0.1554 | 790.5 ± 1 | 2.725 ± 0.057
x2 = 0.1998 | 785.43 ± 1 | 2.41 ± 0.05
x2 = 0.2556 | 779.42 ± 1 | 2.062 ± 0.043
x2 = 0.2999 | 774.91 ± 1 | 1.821 ± 0.038
x2 = 0.3555 | 769.55 ± 1 | 1.561 ± 0.033
x2 = 0.3998 | 765.52 ± 1 | 1.384 ± 0.033
x2 = 0.4554 | 760.72 ± 1 | 1.198 ± 0.033
x2 = 0.4998 | 757.1 ± 1 | 1.076 ± 0.032
x2 = 0.5554 | 752.79 ± 1 | 0.952 ± 0.032
x2 = 0.5997 | 749.54 ± 1 | 0.875 ± 0.032
x2 = 0.6555 | 745.66 ± 1 | 0.802 ± 0.032
x2 = 0.6999 | 742.72 ± 1 | 0.76 ± 0.032
x2 = 0.7555 | 739.25 ± 1 | 0.725 ± 0.032
x2 = 0.7998 | 736.62 ± 1 | 0.708 ± 0.032
x2 = 0.8555 | 733.48 ± 1 | 0.699 ± 0.032
x2 = 0.8999 | 731.11 ± 1 | 0.698 ± 0.032
x2 = 0.9555 | 728.29 ± 1 | 0.703 ± 0.032

CCCCCC(C)O (centres undefined) [2-heptanol] + CCCCCCCCCC
[1]
Settings | mass density [kg/m3] | viscosity [mPa·s]
x2 = 0 | 813.74 ± 1 | 5.08 ± 0.11
x2 = 0.0552 | 806.87 ± 1 | 4.25 ± 0.089
x2 = 0.0999 | 801.55 ± 1 | 3.732 ± 0.078
x2 = 0.1555 | 795.15 ± 1 | 3.152 ± 0.066
x2 = 0.1999 | 790.26 ± 1 | 2.74 ± 0.057
x2 = 0.2554 | 784.36 ± 1 | 2.283 ± 0.048
x2 = 0.2999 | 779.83 ± 1 | 1.962 ± 0.041
x2 = 0.3554 | 774.4 ± 1 | 1.614 ± 0.034
x2 = 0.3998 | 770.24 ± 1 | 1.375 ± 0.033
x2 = 0.4555 | 765.23 ± 1 | 1.122 ± 0.033
x2 = 0.4998 | 761.41 ± 1 | 0.954 ± 0.032
x2 = 0.5555 | 756.8 ± 1 | 0.782 ± 0.032
x2 = 0.5999 | 753.27 ± 1 | 0.673 ± 0.032
x2 = 0.6554 | 749.04 ± 1 | 0.57 ± 0.032
x2 = 0.6999 | 745.79 ± 1 | 0.51 ± 0.032
x2 = 0.7553 | 741.87 ± 1 | 0.461 ± 0.032
x2 = 0.8 | 738.84 ± 1 | 0.44 ± 0.032
x2 = 0.8555 | 735.2 ± 1 | 0.432 ± 0.032
x2 = 0.8998 | 732.39 ± 1 | 0.438 ± 0.032
x2 = 0.9553 | 728.98 ± 1 | 0.457 ± 0.032

CCCCCCCCCC [decane] + CCCCCC(C)O
[1], x1 = 1
Settings | mass density [kg/m3] | viscosity [mPa·s]
– | 726.35 ± 1 | 0.845 ± 0.032
